Drawing on ChEMBL document CHEMBL4680360, “Novel Oxazine Monoacylglycerol Lipase (MAGL) Inhibitors” (ACS Med Chem Lett, 2021), this text covers IC50 for one compound.

In general, IC50 refers to the concentration needed to halve the response being measured. Lower therefore signals greater potency in that assay.

In this assay the target is T1, Monoglyceride lipase (Homo sapiens, UniProt Q99685).
T1 sequence (Q99685 whole entry): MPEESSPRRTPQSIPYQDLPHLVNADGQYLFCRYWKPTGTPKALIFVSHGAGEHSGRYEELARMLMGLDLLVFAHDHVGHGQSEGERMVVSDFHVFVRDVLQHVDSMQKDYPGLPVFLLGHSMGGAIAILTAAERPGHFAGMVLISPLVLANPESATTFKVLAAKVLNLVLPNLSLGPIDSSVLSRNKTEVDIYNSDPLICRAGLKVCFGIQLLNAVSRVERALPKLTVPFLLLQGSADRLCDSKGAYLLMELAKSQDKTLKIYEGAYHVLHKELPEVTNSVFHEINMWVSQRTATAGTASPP
The assay can be described thus: Inhibition of MAGL (unknown origin) using 2-AG as substrate incubated for 15 mins followed by substrate addition and measured after 30 mins by mass spectrophotometry.

With `Cc1ccc([C@@H](c2ccccc2)C2CCN(C(=O)N3CC[C@@H]4OCC(=O)N[C@@H]4C3)CC2)cc1`, the IC50 amounted to 0.1 nM.
